Source: article PMC4392179 (Nature medicine, 2015)

How the values were obtained:
[1] = molecular target: T1, AIM2 inflammasome (Mus musculus, UniProt Q91VJ1); assay: AIM2 inflammasome activation: BMDM stimulated with LPS and transfected Poly; format: cell-based
T1 sequence (Q91VJ1 1-354): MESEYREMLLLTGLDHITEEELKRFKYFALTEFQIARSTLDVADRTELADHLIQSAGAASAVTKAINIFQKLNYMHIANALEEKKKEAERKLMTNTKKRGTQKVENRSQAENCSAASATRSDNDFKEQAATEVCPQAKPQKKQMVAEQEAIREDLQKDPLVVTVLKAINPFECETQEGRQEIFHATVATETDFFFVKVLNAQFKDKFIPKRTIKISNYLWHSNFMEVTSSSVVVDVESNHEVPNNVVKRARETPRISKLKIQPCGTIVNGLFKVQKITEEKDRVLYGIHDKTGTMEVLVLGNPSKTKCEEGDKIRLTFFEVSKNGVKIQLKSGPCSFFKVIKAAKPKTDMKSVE

[2] = Aqueous solubility; format: physicochemical; details: sodium salt
[3] = test system: K+ efflux; assay: Intracellular K+ by ICP-OES in BMDM; format: cell-based, mouse; details: LPS primed BMDM, MCC950 10–300 nM
[4] = molecular target: NLRC4 (Mus musculus, UniProt Q3UP24); assay: NLRC4 inflammasome activation: BMDM stimulated with LPS and S. typhimurium; format: cell-based; details: for NLRC4-stimulated IL-1β secretion / NLRC4-stimulated TNF-α secretion / expression of pro-IL-1β (and pro-caspase-1) in cell lysates: LPS and S. typhimurium; for NLRC4-stimulated IL-1β secretion / NLRC4-stimulated TNF-α secretion: MCC950 up to 10 µM, parthenolide 10 µM
Chain of NLRC4 (Q3UP24 whole entry): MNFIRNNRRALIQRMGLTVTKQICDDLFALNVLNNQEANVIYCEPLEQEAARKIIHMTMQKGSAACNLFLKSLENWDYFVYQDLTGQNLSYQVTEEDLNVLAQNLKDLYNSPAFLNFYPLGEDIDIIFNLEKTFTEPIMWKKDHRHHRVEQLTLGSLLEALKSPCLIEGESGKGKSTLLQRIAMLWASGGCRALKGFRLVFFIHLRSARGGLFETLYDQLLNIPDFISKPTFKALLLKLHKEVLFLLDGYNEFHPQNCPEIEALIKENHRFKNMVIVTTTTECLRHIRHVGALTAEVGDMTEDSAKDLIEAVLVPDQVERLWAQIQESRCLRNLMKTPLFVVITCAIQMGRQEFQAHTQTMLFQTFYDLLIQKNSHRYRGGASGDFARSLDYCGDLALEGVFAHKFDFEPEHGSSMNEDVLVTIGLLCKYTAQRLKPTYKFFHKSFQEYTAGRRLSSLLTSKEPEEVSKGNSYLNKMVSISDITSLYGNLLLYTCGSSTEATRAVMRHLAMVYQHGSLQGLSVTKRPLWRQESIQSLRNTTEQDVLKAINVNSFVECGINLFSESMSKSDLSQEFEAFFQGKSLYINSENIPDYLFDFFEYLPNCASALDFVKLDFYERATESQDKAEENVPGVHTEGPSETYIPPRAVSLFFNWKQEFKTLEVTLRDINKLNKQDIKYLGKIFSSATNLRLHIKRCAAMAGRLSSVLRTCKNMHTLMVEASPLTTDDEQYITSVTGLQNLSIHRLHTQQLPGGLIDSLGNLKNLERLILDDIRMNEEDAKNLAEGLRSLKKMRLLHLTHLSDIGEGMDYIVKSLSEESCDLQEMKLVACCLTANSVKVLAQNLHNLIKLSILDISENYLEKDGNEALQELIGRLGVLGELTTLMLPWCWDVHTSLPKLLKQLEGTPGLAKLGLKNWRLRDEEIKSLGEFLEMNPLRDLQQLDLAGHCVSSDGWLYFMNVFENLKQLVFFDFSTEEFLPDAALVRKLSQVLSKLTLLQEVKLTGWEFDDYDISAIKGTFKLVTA

[5] = test system: TLR signalling; assay: Priming / TLR signalling: BMDM pre-treated and stimulated with LPS or Poly; format: cell-based, mouse; details: for LPS-induced (TLR4) TNF-α secretion / Poly(A:U)-induced (TLR3) TNF-α secretion: BMDM, ELISA
[6] = test system: Ca2+ flux; assay: ATP induced Ca2+ flux in BMDM; details: WT or Ice−/− BMDM
[7] = molecular target: T2, CYP 1A2 (Homo sapiens, UniProt P05177); assay: CYP inhibition in human liver microsomes, substrate cocktail; details: 10 µM
T2 sequence (P05177 1-516): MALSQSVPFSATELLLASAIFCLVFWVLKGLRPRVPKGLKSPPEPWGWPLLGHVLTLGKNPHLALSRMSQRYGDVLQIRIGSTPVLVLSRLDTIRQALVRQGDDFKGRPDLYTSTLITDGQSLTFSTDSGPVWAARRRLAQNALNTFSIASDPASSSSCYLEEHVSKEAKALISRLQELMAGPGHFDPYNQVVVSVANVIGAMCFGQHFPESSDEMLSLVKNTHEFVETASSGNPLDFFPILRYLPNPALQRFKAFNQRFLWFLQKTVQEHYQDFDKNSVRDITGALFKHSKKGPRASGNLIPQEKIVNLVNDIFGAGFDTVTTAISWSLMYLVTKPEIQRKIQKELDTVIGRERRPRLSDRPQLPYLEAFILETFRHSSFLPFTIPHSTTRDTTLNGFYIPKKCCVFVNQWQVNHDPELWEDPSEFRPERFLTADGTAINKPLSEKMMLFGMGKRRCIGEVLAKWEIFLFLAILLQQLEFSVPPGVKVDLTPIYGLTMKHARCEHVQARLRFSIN

[8] = Stability with mouse liver microsomes
[9] = molecular target: CYP 3A4 (Homo sapiens, UniProt P08684); assay: CYP inhibition in human liver microsomes, substrate cocktail; details: 10 µM
Chain of CYP 3A4 (P08684 whole entry): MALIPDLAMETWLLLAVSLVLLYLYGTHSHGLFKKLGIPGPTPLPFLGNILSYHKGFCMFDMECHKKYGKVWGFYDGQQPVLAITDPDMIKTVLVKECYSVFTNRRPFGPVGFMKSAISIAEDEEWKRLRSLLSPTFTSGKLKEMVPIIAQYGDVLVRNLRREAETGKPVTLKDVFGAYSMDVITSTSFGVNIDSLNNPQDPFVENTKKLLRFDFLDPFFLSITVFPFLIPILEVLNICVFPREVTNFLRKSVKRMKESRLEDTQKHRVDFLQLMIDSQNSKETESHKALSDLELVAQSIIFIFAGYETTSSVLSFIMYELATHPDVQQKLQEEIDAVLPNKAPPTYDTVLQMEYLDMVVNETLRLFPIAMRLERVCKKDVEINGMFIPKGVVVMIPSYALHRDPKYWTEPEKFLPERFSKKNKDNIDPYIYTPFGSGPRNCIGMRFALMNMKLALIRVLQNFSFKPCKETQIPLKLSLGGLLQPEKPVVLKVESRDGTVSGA

[10] = test system: NLRP1; format: cell-based
[11] = molecular target: CYP 2C19 (Homo sapiens, UniProt P33261); assay: CYP inhibition in human liver microsomes, substrate cocktail; details: 10 µM
Chain of CYP 2C19 (P33261 whole entry): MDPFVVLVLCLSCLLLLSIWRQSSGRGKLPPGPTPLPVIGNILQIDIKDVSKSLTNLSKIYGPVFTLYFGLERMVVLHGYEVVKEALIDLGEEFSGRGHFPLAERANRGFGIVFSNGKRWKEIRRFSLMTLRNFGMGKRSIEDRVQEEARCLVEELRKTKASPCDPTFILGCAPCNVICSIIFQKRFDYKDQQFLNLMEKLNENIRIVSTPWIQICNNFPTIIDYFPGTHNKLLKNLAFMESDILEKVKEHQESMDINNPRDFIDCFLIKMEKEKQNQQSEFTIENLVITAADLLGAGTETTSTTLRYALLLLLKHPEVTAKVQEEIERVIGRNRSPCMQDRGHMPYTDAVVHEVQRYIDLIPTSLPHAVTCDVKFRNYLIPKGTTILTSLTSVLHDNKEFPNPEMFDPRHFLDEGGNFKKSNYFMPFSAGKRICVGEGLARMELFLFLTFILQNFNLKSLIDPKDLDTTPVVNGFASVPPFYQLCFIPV

[12] = test system: EAE; assay: Experimental autoimmune encephalomyelitis; format: in vivo, C57BL/6 mice
[13] = molecular target: CYP 2D6 (Homo sapiens, UniProt P10635); assay: CYP inhibition in human liver microsomes, substrate cocktail; details: 10 µM
Chain of CYP 2D6 (P10635 whole entry): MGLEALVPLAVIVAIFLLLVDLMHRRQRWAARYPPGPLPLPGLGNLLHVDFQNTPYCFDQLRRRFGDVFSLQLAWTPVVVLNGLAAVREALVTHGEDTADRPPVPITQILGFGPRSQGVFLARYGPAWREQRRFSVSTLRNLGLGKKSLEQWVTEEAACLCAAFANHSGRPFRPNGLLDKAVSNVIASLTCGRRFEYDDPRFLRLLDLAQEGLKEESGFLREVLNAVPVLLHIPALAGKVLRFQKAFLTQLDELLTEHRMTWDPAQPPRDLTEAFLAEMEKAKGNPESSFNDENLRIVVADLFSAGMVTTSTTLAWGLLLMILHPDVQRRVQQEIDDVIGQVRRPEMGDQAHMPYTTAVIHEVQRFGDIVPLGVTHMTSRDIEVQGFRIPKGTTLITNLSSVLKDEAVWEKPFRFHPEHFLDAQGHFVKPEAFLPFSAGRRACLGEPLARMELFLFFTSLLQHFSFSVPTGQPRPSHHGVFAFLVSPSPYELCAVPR

[14] = molecular target: human ether-a-go-go (hERG) potassium channel (Homo sapiens, UniProt Q12809); assay: cell-based
Chain of human ether-a-go-go (hERG) potassium channel (Q12809 whole entry): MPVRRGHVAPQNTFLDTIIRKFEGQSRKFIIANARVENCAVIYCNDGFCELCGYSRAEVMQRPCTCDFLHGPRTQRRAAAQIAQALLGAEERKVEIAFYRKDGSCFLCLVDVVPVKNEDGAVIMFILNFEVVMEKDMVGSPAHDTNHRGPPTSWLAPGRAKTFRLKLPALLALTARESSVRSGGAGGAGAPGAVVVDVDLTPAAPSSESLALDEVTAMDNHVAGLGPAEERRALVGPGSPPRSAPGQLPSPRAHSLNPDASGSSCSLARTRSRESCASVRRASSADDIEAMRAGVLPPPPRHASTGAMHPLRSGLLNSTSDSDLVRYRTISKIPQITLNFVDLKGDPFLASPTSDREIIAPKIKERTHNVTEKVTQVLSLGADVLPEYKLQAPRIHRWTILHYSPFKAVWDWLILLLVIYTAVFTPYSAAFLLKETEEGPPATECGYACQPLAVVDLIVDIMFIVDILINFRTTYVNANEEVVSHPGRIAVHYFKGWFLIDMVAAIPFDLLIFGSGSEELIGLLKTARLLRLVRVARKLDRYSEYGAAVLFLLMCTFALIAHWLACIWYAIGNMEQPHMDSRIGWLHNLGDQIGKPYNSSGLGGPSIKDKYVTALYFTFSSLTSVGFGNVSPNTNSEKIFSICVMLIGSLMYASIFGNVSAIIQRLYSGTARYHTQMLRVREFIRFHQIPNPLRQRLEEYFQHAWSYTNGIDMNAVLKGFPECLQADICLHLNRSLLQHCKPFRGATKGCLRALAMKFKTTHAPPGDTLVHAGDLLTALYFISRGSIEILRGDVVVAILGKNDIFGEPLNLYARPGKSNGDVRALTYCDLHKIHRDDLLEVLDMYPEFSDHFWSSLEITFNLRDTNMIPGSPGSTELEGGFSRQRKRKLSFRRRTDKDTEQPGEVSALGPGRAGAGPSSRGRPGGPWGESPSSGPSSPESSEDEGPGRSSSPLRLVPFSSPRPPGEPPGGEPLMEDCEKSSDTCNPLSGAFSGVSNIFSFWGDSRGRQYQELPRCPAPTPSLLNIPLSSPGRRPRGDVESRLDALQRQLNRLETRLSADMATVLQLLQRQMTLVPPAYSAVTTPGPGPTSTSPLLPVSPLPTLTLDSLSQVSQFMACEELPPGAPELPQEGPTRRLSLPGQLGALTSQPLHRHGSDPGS

[15] = Stability with human liver microsomes
[16] = test system: NLRP1; assay: Nlrp1a Q593P activating mutation mice; format: in vivo; details: NLRP1 mutant mice, 20 mg/kg i.p. every second day for 9 days; P = 0.7
[17] = molecular target: CYP 2C9 (Homo sapiens, UniProt P11712); assay: CYP inhibition in human liver microsomes, substrate cocktail; details: 10 µM
Chain of CYP 2C9 (P11712 whole entry): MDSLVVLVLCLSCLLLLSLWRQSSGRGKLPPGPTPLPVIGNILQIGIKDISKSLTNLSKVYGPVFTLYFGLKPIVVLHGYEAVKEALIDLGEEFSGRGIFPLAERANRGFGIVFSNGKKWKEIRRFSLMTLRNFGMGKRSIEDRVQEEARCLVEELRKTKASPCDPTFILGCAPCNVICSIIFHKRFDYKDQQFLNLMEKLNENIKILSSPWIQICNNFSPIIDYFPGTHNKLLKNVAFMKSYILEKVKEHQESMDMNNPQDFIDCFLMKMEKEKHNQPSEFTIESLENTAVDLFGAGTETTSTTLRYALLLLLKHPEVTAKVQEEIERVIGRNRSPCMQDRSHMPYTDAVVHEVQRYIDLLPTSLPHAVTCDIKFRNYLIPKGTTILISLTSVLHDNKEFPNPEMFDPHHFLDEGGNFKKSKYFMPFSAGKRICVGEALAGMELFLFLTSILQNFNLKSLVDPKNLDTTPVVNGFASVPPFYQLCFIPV

[18] = LPS and Poly(dA:dT), Bayer compound 40 µM

O=C(O)c1ccc(OCCCc2ccc(OCCCC3CCCCC3)cc2)c(C(=O)N2CCC(C(=O)O)CC2)c1 [Bayer compound, 1-(5-carboxy-2{3-[4-(3-cyclohexylpropoxy)phenyl]propoxy}benzoyl)piperidine-4-carboxylic acid, reference compound]
IL-1β secretion [1, 18]: inhibited | Poly(dA:dT) stimulated caspase-1 activation ([1]; Western blot): inhibited

CC(C)(O)c1coc(S(=O)(=O)[N-]C(=O)Nc2c3c(cc4c2CCC4)CCC3)c1.[Na+] [MCC950 sodium salt]
solubility in aqueous solutions [2]: highly soluble

CC(C)(O)c1coc(S(=O)(=O)NC(=O)Nc2c3c(cc4c2CCC4)CCC3)c1 [MCC950, 1-(1,2,3,5,6,7-hexahydro-s-indacen-4-yl)-3-[4-(1-hydroxy-1-methyl-ethyl)-furan-2-sulfonyl]urea]
K+ efflux triggered by nigericin, ATP and SiO2 [3]: did not prevent | NLRC4-stimulated IL-1β secretion [4]: not inhibited | NLRC4-stimulated TNF-α secretion [4]: not inhibited | expression of pro-IL-1β (and pro-caspase-1) in cell lysates ([4]; Western blot): not substantially affected | caspase-1 activation / IL-1β processing in response to S. typhimurium ([4]; Western blot): did not inhibit | LPS stimulated induction of NLRP3 and pro-IL-1β ([5]; BMDM pre-treated, LPS 4 h, Western blot): not affected | LPS-induced (TLR4) TNF-α secretion [5]: did not affect | Poly(A:U)-induced (TLR3) TNF-α secretion [5]: did not affect | ATP induced increase in intracellular Ca2+ [6]: did not substantially affect | inhibition of CYP 1A2 [7]: less than 15% | compound remaining after 60 min [8]: more than 70% | inhibition of CYP 3A4 [9]: less than 15% | ASC speck formation [10]: not decreased | inhibition of CYP 2C19 [11]: less than 15% | EAE onset and severity (clinical scores) ([12]; 10 mg/kg i.p. day 0, 1, 2 and every 2 days thereafter): delayed the onset and reduced the severity | frequencies of IL-17 and IFN-γ producing CD3+ T cells in brain mononuclear cells ([12]; day 22, vs PBS-treated mice): modestly reduced | inhibition of CYP 2D6 [13]: less than 15% | IL-1β secretion [1, 18]: did not attenuate | TNF-α secretion [1, 18]: did not attenuate | IC50 [14]: > 30 µM | compound remaining after 60 min [15]: more than 70% | serum concentrations of IL-18 [16]: did not significantly alter | inhibition of CYP 2C9 [17]: less than 15%

C=C1C(=O)O[C@H]2[C@H]1CC/C(C)=C/CC[C@@]1(C)O[C@@H]21 [parthenolide, reference compound]
NLRC4-stimulated IL-1β secretion [4]: attenuated | NLRC4-stimulated TNF-α secretion [4]: attenuated | expression of pro-IL-1β (and pro-caspase-1) in cell lysates ([4]; Western blot): attenuated | LPS-induced (TLR4) TNF-α secretion [5]: abrogated | Poly(A:U)-induced (TLR3) TNF-α secretion [5]: abrogated
